Columns and labels:
[1] = compound: C[C@@H](C(=O)N[C@@H](C1CCCCC1)C(=O)N2CCC[C@H]2C(=O)N[C@@H]3[C@@H](CC4=CC=CC=C34)OCC#CC#CCO[C@@H]5CC6=CC=CC=C6[C@@H]5NC(=O)[C@@H]7CCCN7C(=O)[C@H](C8CCCCC8)NC(=O)[C@H](C)NC)NC [AZD5582] + NC(=O)Nc1cc(-c2cccc(F)c2)sc1C(=O)N[C@H]1CCCNC1 [AZD7762] (partner 0.2 µM); assay: relative viability (nuclei count vs DMSO), 5 days (fraction); higher = more cells survive
Outline: (§1)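 One day after seeding in 1536-well plates, lung cancer cell lines were dosed by pin tool. Dosing was either single-drug or a fixed anchor-drug dose plus five library-drug doses (not always all listed) in √10 steps. After 5 days, nuclei were stained in one fix-and-stain step and counted on 4× images, and relative viability is the nuclei count of treated wells over that of vehicle wells, given as the median of duplicate plates.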

[2] = compound: C[C@@H](C(=O)N[C@@H](C1CCCCC1)C(=O)N2CCC[C@H]2C(=O)N[C@@H]3[C@@H](CC4=CC=CC=C34)OCC#CC#CCO[C@@H]5CC6=CC=CC=C6[C@@H]5NC(=O)[C@@H]7CCCN7C(=O)[C@H](C8CCCCC8)NC(=O)[C@H](C)NC)NC [AZD5582] + CC(=O)Nc1cccc(-n2c(=O)n(C3CC3)c(=O)c3c(Nc4ccc(I)cc4F)n(C)c(=O)c(C)c32)c1 [Trametinib] (partner 0.02 µM); assay: as above
Outline: as §1

Cell Line	relative viability ([1]; first compound 0.001581 µM)	relative viability ([1]; first compound 0.005 µM)	relative viability ([1]; first compound 0.01581 µM)	relative viability ([1]; first compound 0.05 µM)	relative viability ([2]; first compound 0.001581 µM)	relative viability ([2]; first compound 0.005 µM)	relative viability ([2]; first compound 0.01581 µM)	relative viability ([2]; first compound 0.05 µM)
201T	0.479	0.579	0.556	0.447	0.786	0.842	0.719	0.847
A-427	0.682	0.703	0.748	0.637	0.568	0.608	0.71	0.566
ABC-1	0.59	1.13	0.72	0.572				
BEN	0.74	0.701	0.866	0.619	0.893	1.13	1.05	1.2
CAL-12T	0.423	0.468	0.485	0.405	0.31	0.34	0.291	0.216
COR-L23					0.485	0.75	0.584	0.523
COR-L 105					0.445	0.517	0.427	0.539
ChaGo-K-1	0.794	0.874	0.816	0.837	0.897	0.883	0.886	0.936
EKVX	0.603	0.661	0.565	0.595	0.276	0.405	0.289	0.376
EMC-BAC-2	1.07	1.06	0.996	1.04	0.757	0.841	0.737	0.797
EPLC-272H	0.0994		0.204	0.0859	0.15		0.292	0.0966
H3255	0.805	0.779	0.842	0.773	0.58	0.667	0.557	0.524
HARA	0.204	0.261	0.315	0.225	0.464	0.719	0.747	0.976
HCC-15	1.06	1.05	1.2	0.615	0.328	0.39	0.332	0.365
HCC-44	0.9	1.01	1.05	1.03	0.883	0.967	1.02	0.878
HCC-78	0.691	0.601	0.468	0.417	0.735	0.813	0.712	0.534
HCC-366	0.132	0.285	0.33	0.41	0.304	0.339	0.413	0.458
HCC-827	0.192	0.139	0.211	0.186	0.538	0.611	0.515	0.589
HOP-62	0.29	0.395	0.722	0.508	0.407	0.456	0.418	0.446
LC-2-ad	0.821	1.04	0.801	0.929	0.92	1.04	0.942	1.04
LCLC-97TM1	0.193	0.221	0.225	0.154	0.203	0.25	0.184	0.189
LCLC-103H	0.745	0.725	0.613	0.41	0.702	0.813	0.643	0.828
LK-2	0.249	0.537		0.338	0.466	0.81	0.731	1.04
LOU-NH91	0.715	0.833	0.704	0.742	0.772	0.767	0.781	0.808
LU99A	0.317	0.349	0.313	0.337	0.575	0.68	0.534	0.617

Cell Line	relative viability ([1]; first compound 0.001581 µM)	relative viability ([1]; first compound 0.005 µM)	relative viability ([1]; first compound 0.01581 µM)	relative viability ([1]; first compound 0.05 µM)	relative viability ([2]; first compound 0.001581 µM)	relative viability ([2]; first compound 0.005 µM)	relative viability ([2]; first compound 0.01581 µM)	relative viability ([2]; first compound 0.05 µM)
LXF-289	1.01	1.09	0.963	1.12	0.641	0.647	0.654	0.726
NCI-H23	0.163	0.172	0.177	0.227	0.31	0.37	0.359	0.319
NCI-H322M	0.53	0.598	0.504	0.6	0.561	0.62	0.496	0.68
NCI-H358	0.471	0.586	0.697	0.506	0.156	0.157	0.142	0.147
NCI-H441	0.942	0.895	1.02	0.867	0.508	0.636	0.385	0.34
NCI-H460	0.516	0.628	0.562	0.639	0.118	0.243	0.144	0.221
NCI-H520					0.605	0.784	0.791	0.708
NCI-H522	0.982	0.887	0.885	0.645	0.628	0.777	0.724	0.747
NCI-H596	1.07		1.11	0.38	0.738		0.8	0.588
NCI-H647	0.324	0.394	0.336	0.447	0.417	0.477	0.443	0.47
NCI-H650	1.05	1.07	0.643	0.788	0.919	1.05	0.987	0.944
NCI-H661					0.524	0.697	0.589	0.648
NCI-H727	0.538	0.744	0.651	0.833	0.398	0.383	0.37	0.406
NCI-H838	0.87	0.903	0.81	1.01	0.493	0.582	0.405	0.498
NCI-H1355	0.47	0.667	0.643	0.556	0.396	0.444	0.452	0.409
NCI-H1395	0.346	0.376		0.406	0.961	1.22		1.28
NCI-H1437	1.1	1.14	1.09	1.14	0.43	0.572	0.461	0.573
NCI-H1648	0.462	0.649		0.626	0.38	0.511		0.412
NCI-H1650					0.447	0.596	0.514	0.621
NCI-H1651	0.419	0.456	0.398	0.388	0.751	0.847	0.8	0.946
NCI-H1666	0.774	0.85	0.737	0.746	0.959	0.864	0.846	0.852
NCI-H1734	0.502	0.498	0.584	0.749	0.621	0.696	0.743	0.701
NCI-H1755	0.438	0.472	0.291	0.494	0.761	0.843	0.802	0.9
NCI-H1792	0.647	0.625	0.585	1.02	0.347	0.482	0.478	0.669
NCI-H1793	0.254	0.795	0.277	0.487	0.464	0.536	0.463	0.557

Cell Line	relative viability ([1]; first compound 0.001581 µM)	relative viability ([1]; first compound 0.005 µM)	relative viability ([1]; first compound 0.01581 µM)	relative viability ([1]; first compound 0.05 µM)	relative viability ([2]; first compound 0.001581 µM)	relative viability ([2]; first compound 0.005 µM)	relative viability ([2]; first compound 0.01581 µM)	relative viability ([2]; first compound 0.05 µM)
NCI-H1915	0.657	0.672	0.673	0.495	0.309	0.294	0.296	0.373
NCI-H1944	0.316	0.523	0.475	0.581	0.36	0.487	0.406	0.485
NCI-H1975	0.709	0.932	0.667	0.902	0.444	0.434	0.448	0.322
NCI-H1993	0.694	0.867	0.7	1.03	0.455	0.505	0.493	0.526
NCI-H2009					0.281	0.297	0.295	0.333
NCI-H2023					0.421	0.525	0.595	0.36
NCI-H2085	0.987	1.02	0.855	0.948	0.433	0.643	0.394	0.61
NCI-H2087	1.21	1.27	1.17	1.13	0.184	0.244	0.163	0.22
NCI-H2126	0.981	0.933	0.896	0.747	0.581	0.594	0.594	0.614
NCI-H2170	0.813	0.884	0.88	1.04	0.904	0.825	0.861	1.03
NCI-H2228					0.529	0.434	0.714	0.161
NCI-H2342	0.429	0.43	0.49	0.556	0.792	0.922	0.693	0.932
NCI-H2347	0.724	0.558	0.666	0.713	0.327	0.266	0.264	0.311
NCI-H2405	0.87	0.878	0.674	0.997	0.705	0.739	0.545	0.709
NCI-H3122	0.899	0.988	1.01	0.306	0.269	0.224	0.24	0.206
PC-3 [JPC-3]	0.706	0.617	0.73	0.423	0.668	0.627	0.696	0.486
PC-14	0.255	0.247	0.294	0.183	0.404	0.44	0.722	0.397
RERF-LC-KJ	0.2	0.414	0.855	0.491	0.764	0.818	0.898	0.781
SK-LU-1					0.379	0.383	0.407	0.236
SK-MES-1					0.675	0.949	0.542	1
SW 900	0.539	0.491	0.544	0.31	0.634	0.865	0.758	0.615
SW 1573					0.473	0.586	0.537	0.662
UMC-11					0.624	0.679	0.629	0.417

Source: the supplement of paper PMC10307832
